Experiment: In vitro inhibitory activity towards Coagulation factor X was determined using chromogenic substrate, MeO-COD-CHG-Gly-Arg-pNA

| Compound | Ki [µM] |
| --- | --- |
| N=C(N)c1ccc(O)cc1 | 30 |
| N=C(N)c1ccc(CO)cc1 | 55 |
| N=C(N)c1ccc(CCN)cc1 | 750 |
| CP(=O)(O)c1ccc2c(N)nccc2c1 | > 5000 |
| CS(=O)(=O)CCc1ccc(C(=N)N)cc1 | 193 |
| CS(=O)(=O)Cc1ccc(C(=N)N)cc1 | > 5000 |
| N=C(N)c1ccc(CCO)cc1 | 607 |
| N=C(N)c1ccccc1 [BENZAMIDINE] | 349 |
| CN(C)c1ccc(P(C)(=O)O)cc1 | 4100 |
| CS(=O)(=O)c1ccc(C(=N)N)cc1 | 1800 |
| N=C(N)c1ccc(CN)cc1 | 429 |
| N=C(N)c1ccc(N)cc1 | 197 |

Source: ChEMBL document CHEMBL1137904, “Design, synthesis, and evaluation of oxyanion-hole selective inhibitor substituents for the S1 subsite of factor Xa” (Bioorg Med Chem Lett, 2004)
